From patent publication US20230277863A1, “Use Of Photosensitizers For Treatment Of Viral Respiratory Infections” (priority 2020, published 2023)

How the values were obtained:
BCoV strain L9 = assay: Inactivation of bovine coronavirus in infected U373 cells, photosensitizer plus 810 nm laser irradiation; conditions: for residual virus: 100 joule/cm^2, 0.3 watt/cm^2
bovine coronavirus = assay: Inactivation of bovine coronavirus in infected cells using non-coherent LED light; assay type: cell-based; conditions: broadband LED light (non-coherent), 10000 Lux, 2 min of irradiation
Experimental: In a further set of experiments, the U737 cells were treated under the conditions as shown in the table of FIG. 1 using irradiation with either a monochromatic LED device at 590 nm or a broadband LED device (non-coherent light in each case). Light intensity was 10000 Lux in both cases.

SARS-CoV-2 = assay: Treatment of a human subject suffering from COVID-19; assay type: in vivo; conditions: one patient, 3 days, every 6 hours
[1] = tested on: SARS-CoV-2/Germany strain; assay: Inactivation of SARS-CoV-2 in infected Vero E6 cells, methylene blue plus broadband LED irradiation; conditions: for mean reduction factor (RF): broadband LED (Ledlenser P6), SARS-CoV-2-infected Vero E6 cells; for inactivation of the SARS-CoV-2: corresponds to the mean RF
[2] = 0.01% photosensitizer, without radiation, immediately wrapped in aluminium foil, stored and frozen in the dark

CN(C)c1ccc2nc3ccc(=[N+](C)C)cc-3sc2c1 [methylene blue]
mean reduction factor (BCoV strain L9; 0.0001% (w/v) photosensitizer, 810 nm, 100 joule/cm^2, 0.3 watt/cm^2, 5.46 min, BCoV-infected U373 cells): ≥ 6.00 log10 steps
cytotoxicity (CT) (BCoV strain L9; 0.0001% photosensitizer samples, titration on U373 cells): no cytotoxicity
residual virus (BCoV strain L9; 0.0001% photosensitizer, 810 nm): only minimal residual virus could still be detected in one sample
virus inactivation (BCoV strain L9; 0.0001% photosensitizer, 810 nm, 100 joule/cm^2, corresponds to the mean RF): ≥ 99.999%
reduction factor (RF) (BCoV strain L9; 0.001% (w/v) photosensitizer, 810 nm, 100 joule/cm^2, 0.3 watt/cm^2, 5.46 min, BCoV-infected U373 cells): 5.08 log10 steps
reduction factor (RF) (BCoV strain L9; 0.01% (w/v) photosensitizer, 810 nm, 100 joule/cm^2, 0.3 watt/cm^2, 5.46 min, BCoV-infected U373 cells): 4.08 log10 steps
reduction factor (RF) (BCoV strain L9; [2]): 0.38±0.64
residual virus / effectiveness (BCoV strain L9; [2]): substantial amounts of residual virus and no effectiveness
reduction factor (RF) (BCoV strain L9; 0.1% (w/v) photosensitizer, 810 nm, 100 joule/cm^2, 0.3 watt/cm^2, 5.46 min, BCoV-infected U373 cells): 3.08 log10 steps
residual virus (BCoV strain L9; 0.1% (w/v) to 0.001% (w/v) photosensitizer, 810 nm): no residual virus was found
reduction of residual virus (bovine coronavirus): 3 log10 steps
PCR SARS-CoV-2 cycle threshold (CT) after treatment (SARS-CoV-2; 3 μg methylene blue nasal/throat spray plus broadband LED ca. 6000 Lux, CT before treatment 19): 35
condition of patient after treatment (SARS-CoV-2; 3 μg methylene blue spray plus broadband LED, before: dry cough, headache, 38.2° C., medium general condition): no cough, no headache, normalized body temperature, normal general condition
mean reduction factor (RF) ([1]; 0.0001% photosensitizer): ≥ 4.67
inactivation of the SARS-CoV-2 ([1]; 0.0001% photosensitizer): 99.99%
residual virus ([1]; 0.001% or 0.0001% photosensitizer, irradiation 1 minute, 20,000 lx, initial virus titre 6.92 log 10 TCID50/ml, Vero E6 cells): No residual virus was found
mean reduction factor (RF) ([1]; 0.001% photosensitizer): ≥ 4.67
inactivation of the SARS-CoV-2 ([1]; 0.001% photosensitizer): 99.99%
